The source of these data is patent US8691859B2 (priority 2005, dated 2014).

Values after ≈ are worked out from the molar mass of the structure shown.

The subject of experiment [1] is B. anthracis GFP sterne spores. The experiment is described as follows: microbe, parasite or virus in culture. Type of experiment: cell-based. The conditions noted are these: for MIC: Bacillus anthracis, read-out: MIC B. anthracis spores.
In experiment [2] the test system is B. anthracis GFP sterne vegetative cells. Nature of the experiment: microbe, parasite or virus in culture. It is filed as cell-based. The conditions noted are these: for MIC: Bacillus anthracis, read-out: MIC B. anthracis vegetative cells.

Regarding `N=C(N)c1ccc2c(c1)=NC(=C(N)N)C=2` [NSC 330689, 2-(diaminomethylidene)indole-6-carboximidamide], the MIC in experiment [1] and in experiment [2] was more than 11 mg/L throughout.
Consider `N=C(N)c1ccc(/C=C/c2cc3cc(C(=N)N)ccc3o2)cc1` [NSC 300512, 2-[(E)-2-(4-carbamimidoylphenyl)ethenyl]benzofuran-5-carboximidamide], for which the MIC in experiment [1] and in experiment [2] was more than 15.1 mg/L each time.
As for `c1cc(-c2cc3cc(C4=NCCN4)ccc3s2)ccc1C1=NCCN1` [NSC 308569, 2-[2-[4-(4,5-dihydro-1H-imidazol-2-yl)phenyl]benzothiophen-5-yl]-4,5-dihydro-1H-imidazole], the MIC in experiment [1] and in experiment [2] was more than 16.8 mg/L in each case.
In the case of `c1cc(-c2[nH]c3cc(C4=NCCN4)ccc3c2-c2cc3ccc(C4=NCCN4)cc3[nH]2)ccc1C1=NCCN1` [NSC 352341, 6-(4,5-dihydro-1H-imidazol-2-yl)-3-[6-(4,5-dihydro-1H-imidazol-2-yl)-1H-indol-2-yl]-2-[4-(4,5-dihydro-1H-imidazol-2-yl)phenyl]-1H-indole], the “MIC B. anthracis spores” value in experiment [1] was found to be 6.82 mg/L (≈ 13.3 µM). Also, the “MIC B. anthracis vegetative cells” value in experiment [2] is 13.64 mg/L (≈ 26.6 µM).
Consider `Cc1cc(N)c2cc(NC(=O)Nc3ccc4nc(C)cc(N)c4c3)ccc2n1` [NSC 12155, 1,3-bis(4-amino-2-methyl-quinolin-6-yl)urea], for which the figures for the MIC in experiment [1] and in experiment [2] were 4.45 mg/L (≈ 11.9 µM) and 17.8 mg/L (≈ 47.8 µM), respectively.
In the case of `C(=C\c1cc2ccc(C3=NCCN3)cc2[nH]1)/c1ccc(Oc2ccc(C3=NCCN3)cc2)cc1` [NSC 330690, 6-(4,5-dihydro-1H-imidazol-2-yl)-2-[(E)-2-[4-[4-(4,5-dihydro-1H-imidazol-2-yl)phenoxy]phenyl]ethenyl]-1H-indole], the MIC in experiment [1] and in experiment [2] was 2.6 mg/L (≈ 5.81 µM) throughout.
As to `c1cc(-c2cc3ccc(C4=NCCN4)cc3[nH]2)ccc1C1=NCCN1` [NSC 278995, 6-(4,5-dihydro-1H-imidazol-2-yl)-2-[4-(4,5-dihydro-1H-imidazol-2-yl)phenyl]-1H-indole], the MIC in experiment [1] and in experiment [2] was more than 16.1 mg/L throughout.
With `N=C(N)c1ccc(-c2cc3cc(C(=N)N)ccc3s2)cc1` [NSC 240891, 2-(4-carbamimidoylphenyl)benzothiophene-5-carboximidamide], the MIC in experiment [1] and in experiment [2] was more than 14.7 mg/L in each case.
As for `O=C(Nc1ccc(C2=NCCN2)cc1)c1cc2ccc(C3=NCCN3)cc2o1` [NSC 294208, 6-(4,5-dihydro-1H-imidazol-2-yl)-N-[4-(4,5-dihydro-1H-imidazol-2-yl)phenyl]benzofuran-2-carboxamide], the MIC in experiment [1] and in experiment [2] was more than 17.8 mg/L in each case.
For `C(/C=C/c1cc2cc(C3=NCCN3)ccc2o1)=C\c1ccc(C2=NCCN2)cc1` [NSC 308573, 2-[2-[(1E,3E)-4-[4-(4,5-dihydro-1H-imidazol-2-yl)phenyl]buta-1,3-dienyl]benzofuran-5-yl]-4,5-dihydro-1H-imidazole], the MIC in experiment [1] and in experiment [2] was 18.2 mg/L (≈ 47.6 µM) in each case.
As to `C(=C\c1cc2cc(C3=NCCN3)ccc2o1)/c1ccc(C2=NCCN2)cc1` [NSC 308570, 2-[2-[(E)-2-[4-(4,5-dihydro-1H-imidazol-2-yl)phenyl]ethenyl]benzofuran-5-yl]-4,5-dihydro-1H-imidazole], the MIC in experiment [1] and in experiment [2] was 17.2 mg/L (≈ 48.1 µM) in each case.
With `N=C(N)c1ccc2oc(/C=C/c3cc4cc(C(=N)N)ccc4s3)cc2c1` [NSC 266472, 2-[(E)-2-(5-carbamimidoylbenzothiophen-2-yl)ethenyl]benzofuran-5-carboximidamide], the MIC in experiment [1] was determined as 8.66 mg/L (≈ 24 µM); in experiment [2], 17.3 mg/L (≈ 48.1 µM).
On to `c1cc(-c2nc3ccc(-c4nc5ccc(C6=NCCN6)cc5[nH]4)cc3[nH]2)ccc1C1=NCCN1` [NSC 369721, 5-(4,5-dihydro-1H-imidazol-2-yl)-2-[2-[4-(4,5-dihydro-1H-imidazol-2-yl)phenyl]-3H-benzoimidazol-5-yl]-3H-benzoimidazole], for which the MIC in experiment [1] came to 1.39 mg/L (≈ 3.11 µM); in experiment [2], 22.3 mg/L (≈ 49.9 µM).
